Measured values published in US6451548B1, “Methods for screening for specific inhibitors of trap and identifying compounds for treatment of diseases or conditions resulting in increased bone resorption using activated TRAP” (Biovitrum AB, priority 1998, dated 2002).
Like-named read-outs stand apart in the source and are kept apart here. Where no end group is shown, it is not given here. [ ]: non-standard residue; d: D form. pY = N[C@@H](Cc1ccc(OP(=O)(O)O)cc1)C(=O)O; pT = C[C@@H](OP(=O)(O)O)[C@H](N)C(=O)O; pS = N[C@@H](COP(=O)(O)O)C(=O)O

Assays:
[1] = molecular target: T1, rat bone TRAP (Rattus norvegicus, UniProt P29288); assay: Preincubation with reducing agents, bone TRAP; type: biochemical
T1 construct: from tissue; host or cells: long bones of 3 week old Sprague Dawley rats
T1 sequence (P29288 23-327): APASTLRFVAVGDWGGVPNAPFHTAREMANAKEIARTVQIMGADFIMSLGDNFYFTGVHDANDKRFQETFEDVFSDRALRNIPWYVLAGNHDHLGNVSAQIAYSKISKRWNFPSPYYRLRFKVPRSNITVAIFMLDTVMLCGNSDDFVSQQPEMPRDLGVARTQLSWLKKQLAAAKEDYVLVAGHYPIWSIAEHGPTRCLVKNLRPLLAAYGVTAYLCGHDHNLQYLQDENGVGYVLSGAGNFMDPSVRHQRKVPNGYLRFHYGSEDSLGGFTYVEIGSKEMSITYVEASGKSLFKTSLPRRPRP
T1 sequence (P29288 184-327): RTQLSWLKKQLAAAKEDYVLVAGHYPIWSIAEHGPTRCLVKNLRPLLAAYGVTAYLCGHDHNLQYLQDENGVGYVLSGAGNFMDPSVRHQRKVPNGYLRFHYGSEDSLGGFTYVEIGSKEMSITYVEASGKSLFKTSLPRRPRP
Description: (§1) P-nitrophenylphosphosphatase activity was assayed in 96-well plates using the p-nitrophenylphosphate (pNPP) as substrate in the incubation medium (150 μl) containing (final concentrations); 10 mM pNPP, 0.1 M sodium acetate pH 5.8, 0.15 M KCl, 0.1% Triton X-100, 10 mM sodium tartrate, 1 mM ascorbic acid and 0.1 mM FeCl3. The p-nitrophenol liberated after 1 hour of incubation at 37° C. was converted into p-nitrophenylate by the addition of 100 μl of 0.3 M NaOH, and the absorbance was read at 405 nm. For absorbance reading a Spectramax 250 spectrophotometer (Molecular Devices, Sunnyvale, Calif.) was used.
(§2) c) BaculoTRAP digested with papain or trypsin were compared with undigested baculoTRAP and bone TRAP. Ascorbic acid and FeCl3 were used as reducing agents during preincubation of TRAP for indicated time intervals in a total volume of 70 μl with (final concentrations); 1 mM ascorbic acid, 0.1 mM FeCl3, 0.15 M KCl, 10 mM sodium tartrate, 0.1% Triton X-100. Except for a substrate incubation time of 10 min, TRAP activity was measured after the addition of 80 μl of substrate solution as described under Materials and Methods.

[2] = molecular target: T2, intact recombinant TRAP (baculoTRAP) (Rattus norvegicus, UniProt P29288); assay: Preincubation with reducing agents, intact recombinant TRAP; type: biochemical; settings: ascorbate 1 mM in the presence of 0.1 mM FeCl3
T2 construct: made in house
T2 sequence (P29288 23-327): T1 sequence (P29288 23-327)
Description: as §1, §2

[3] = molecular target: T3, recombinant rat TRAP (BacTRAP) (Rattus norvegicus, UniProt P29288); assay: pNPP hydrolysis by untreated recombinant TRAP; type: biochemical
T3 construct: made in house
T3 sequence (P29288 23-327): T1 sequence (P29288 23-327)
Description: as §1
(§3) 1 U of p-nitrophenylphosphatase activity corresponds to 1 μmole of p-nitrophenol liberated per minute at 37° C. […] The substrates were dissolved in incubation medium containing the same buffer as in the pNPP-assay. After 1 hour of incubation (final volume 50 μl) at 37° C. the assay was stopped by addition of 50 μl of color reagens (0.12% Malachite-green in 3 M H2SO4/7.5% ammomium molybdate/11% Tween-20; 10:2.5:0.2). A phosphate standard curve (0-nmol) was always run in parallel. After color development for 10 min the absorbance at 630 nm was measured using a Spectramax 250 spectrophotometer.

[4] = test system: BacTRAP + trypsin; assay: pNPP hydrolysis by trypsin-digested recombinant TRAP; type: biochemical, rat
Description: as §1
as §3, with “A phosphate standard curve (0-nmol) was always run in parallel.” left out, “spectrophotometer. […]” for “spectrophotometer.”
(§4) Incubation was performed at room temperature for 1 h with the suspension kept well mixed during the reaction period. The proteolytic digestions above were stopped by centrifugation and the cleavage products of TRAP in the supernatant were further analyzed. […]

[5] = molecular target: T4, BacTRAP + papain (Rattus norvegicus, UniProt P29288); assay: pNPP hydrolysis by papain-digested recombinant TRAP; type: biochemical
T4 construct: made in house; host or cells: recombinant Baculovirus-infected cells; then digested with papain-agarose
T4 sequence (P29288 23-327): T1 sequence (P29288 23-327)
T4 sequence (P29288 184-327): T1 sequence (P29288 184-327)
Description: as §1, §3
Proteolytic Digestion of TRAP 25 μg baculoTRAP or bone TRAP were digested with […] papain-agarose in 500 μl of incubation solution; 10 mM sodium acetate, pH 4.6, 0.1% Triton X-100 and 2 mM DTT. Incubation was performed at room temperature for 24 h, with constant mixing of the gel. 25 μg baculo TRAP or bone TRAP were digested with 100 μl (5units) trypsin-agarose in 500 μl of incubation solution; 10 mM Tris pH 7.0 and 0.1% Triton X-100.
Incubation was performed at room temperature for 1 h with the suspension kept well mixed during the reaction period. The proteolytic digestions above were stopped by centrifugation and the cleavage products of TRAP in the supernatant were further analyzed. Digestion of baculo TRAP or bone TRAP with cathepsin B were performed at (final concentrations); 10 ng TRAP/μl, 0.4 mU cathepsin B/μl, 2 mM DTT, 50 mM sodium acetate and 1 mM EDTA, pH 5.5. The incubations were performed at 37° C. for 24 h and digestions were stopped with protease inhibitor cocktail Complete according to the instructions of the manufacturer.

[6] = test system: BacTRAP + Cath. B; assay: pNPP hydrolysis by cathepsin B-digested recombinant TRAP; type: biochemical, rat
Description: as §1
as §3, with “A phosphate standard curve (0-nmol) was always run in parallel.” left out
as §4

[7] = molecular target: T5, BoneTRAP (Rattus norvegicus, UniProt P29288); assay: pNPP hydrolysis by bone TRAP; type: biochemical; settings: BoneTRAP untreated
T5 construct: from tissue; host or cells: long bones of 3 week old Sprague Dawley rats
T5 sequence (P29288 23-327): T1 sequence (P29288 23-327)
T5 sequence (P29288 184-327): T1 sequence (P29288 184-327)
Description: Bone TRAP was purified from the long bones of 40 3 week old Sprague Dawley rats. All operations were performed at 4° C. The dissected bones, free from soft tissue, were cut into small pieces and placed in homogenization solution with protease inhibitors (3 ml/g bone); 0.15 M KCl, 0.1% Triton X-100, Pefabloc (1 mg/ml), Pepstatin A (10 μg/ml), E-64 (10 μg/ml) and 5 mM EDTA. A Polytron homogenizer (Brinkman Instruments Westbury, N.Y.) was used for homogenization during 10 seconds, with 1 minute intervals, until a homogenous suspension was achieved. The homogenate was cleared by centrifugation at 3,200×g for 30 min. 5 % protamine sulfate was added dropwise to the supernatant during continous stirring to a final concentration of 0.5%, with further stirring for 30 min. […]
as §1, with “used. […]” for “used.”

[8] = molecular target: T6, recombinant rat TRAP produced using Baculovirus expression system (BacTRAP) (Rattus norvegicus, UniProt P29288); assay: Substrate specificity of recombinant TRAP (phosphatase assay); type: biochemical
T6 construct: made in house
T6 sequence (P29288 23-327): T1 sequence (P29288 23-327)
Description: (§5) The substrates were dissolved in incubation medium containing the same buffer as in the pNPP-assay. […] A phosphate standard curve […] was always run in parallel. […] In order to validate whether the structural alterations induced by proteolytic cleavage of the monomeric TRAP was generally affecting known substrates for TRAP and not restricted to the non-physiological substrate pNPP, we surveyed a number of different phosphoaminoacids, phosphopeptides and the phosphoprotein osteopontin as substrates for the TRAPs (See Table II).

[9] = molecular target: T7, TRAP isolated from rat bone (BoneTRAP) (Rattus norvegicus, UniProt P29288); assay: Substrate specificity of bone TRAP (phosphatase assay); type: biochemical; settings: for Ratio Bone/Bac: Kcat/Km BoneTRAP over BacTRAP
T7 construct: from tissue; host or cells: long bones of 3 week old Sprague Dawley rats
T7 sequence (P29288 23-327): T1 sequence (P29288 23-327)
T7 sequence (P29288 184-327): T1 sequence (P29288 184-327)
Description: as §5

[10] = Kcat/Km relative to pT = 1.0, BacTRAP
[11] = Kcat/Km relative to pT = 1.0, BoneTRAP

Ratio Bone/Bac [9] | Ratio (BacTRAP) [8, 10] | Ratio (BoneTRAP) [9, 11] | Compound | further results
– | – | – | O=C1O[C@H]([C@@H](O)CO)C(O)=C1O [ascorbate, ascorbic acid] | effect of prolonged pre-incubation on TRAP activity ([1]; ascorbate 1 mM in the presence of 0.1 mM FeCl3): time-dependent inactivation; time to maximal activation ([1]; pre-incubation with ascorbate 1 mM, 0.1 mM FeCl3): ≤ 10 min; effect of prolonged pre-incubation on TRAP activity [2]: did not show this tendency for inactivation
22 | 1.2 | 2.0 | N[C@@H](COP(=O)(O)O)C(=O)O [pS, phosphoserine] | –
14 | 1.0 | 1.0 | C[C@@H](OP(=O)(O)O)[C@H](N)C(=O)O [pT, Phosphothreonine] | –
19 | 250 | 350 | N[C@@H](Cc1ccc(OP(=O)(O)O)cc1)C(=O)O [pY, phosphotyrosine] | –
18 | 475 | 640 | DADE(pY)LIPQQG | –
4.2 | 50 | 15 | EDEE[pS]EDEE | –
10 | 375 | 280 | END[pY]INASL | –
15 | 14 | 15 | FRI[pS]HELDS | –
17 | 1875 | 2360 | OPN: acidic phospho-seryl protein osteopontin purified from bovine milk | –
5.0 | 2.8 | 10 | RRA[pT]VA | –

Compound | Ratio Bone/Bac [9] | Ratio (BacTRAP) [8, 10] | Ratio (BoneTRAP) [9, 11] | further results
O=[N+]([O-])c1ccc(OP(=O)(O)O)cc1 [pNPP, p-nitrophenylphosphate] | 8.8 | – | – | Km ([3]; pNPP hydrolysis, BacTRAP untreated): 3100 µM; pH-optimum of pNPP hydrolysis ([3]; recombinant TRAP as isolated): 4.5-5.0 pH; Km [4]: 2100 µM; Km ([5]; pNPP hydrolysis, BacTRAP + papain): 1000 µM; increase in the ratio kcat/Km ([5]; papain-cleaved recombinant TRAP compared to untreated monomeric TRAP): 10 fold; decrease in the Km for pNPP ([5]; papain-cleaved vs untreated recombinant TRAP): 3 fold; optimal pH of pNPP hydrolysis ([5]; recombinant TRAP cleaved with papain): 5.5-6.0 pH; Km [6]: 900 µM; Km [7]: 1000 µM; Ratio (BacTRAP) [8]: 1075; Ratio (BoneTRAP) [9]: 690
